According to patent US10369134B2, “Nonracemic mixtures and uses thereof” (Sunovion Pharmaceuticals Inc., priority 2017, dated 2019):

Experiments:
freely moving rats [1] = experiment: Sleep study of 85:15 (R:S-amisulpride) and racemic amisulpride (EEG/EMG); type: in vivo; settings: rat, p.o., R-amisulpride content of the total dose
Description: Groups in this study were as follows. Test compound was administered to rats in a cross-over design.
Vehicle or fixed ratio amisulpride dosing solutions were orally administered 10 min before the beginning of light phase (light phase: 10:00 AM to 10:00 PM). The individual dosing volume was 4 mL/kg. The individual dosing volume was calculated based on the animals' body weight measured on each experimental day. At least 1-week wash-out period after each treatment was provided.
The R-amisulpride and S-amisulpride were separately weighed. […]
A radio transmitter was implanted intraperitoneally in each anesthetized animal (sodium pentobarbital, 32.4 mg/kg, i.p. and medetomidine hydrochloride, 0.5 mg/kg, i.p.). […] Electromyograms (EMG) were recorded from the dorsal neck muscle. […] EEG/EMG was recorded in the home cages in a soundproof box using Dataquest A.R.T. software (Data Science International, New Brighton, Minn., USA) at a sampling rate of 500 Hz. […]
All data were expressed as a mean±SEM. Difference between 85/15 and 50/50 amisulpride at each dose in each sleep architecture (i.e. REM sleep duration, NREM sleep duration, and WAKE duration) during the first 4 hours after administration were assessed by a repeated measures one-way ANOVA, followed by post-hoc Bonferroni multiple comparison test. […]

rat = experiment: Forced Swim test; type: in vivo; settings: 0.5 mg/kg i.p. at 24, 5 and 1 h before swim test, mean ± SE, vehicle 168±12
Description: The Forced Swim test (FST) is an indicator of the antidepressant-like activity of a test compound. The rat will swim before “giving up” and becoming immobile. A compound with antidepressant-like activity will decrease the time the rat is immobile.
The animals (n=90) were divided into five groups. […] In the training session, each animal was gently placed into the plastic cylinder containing 5.8 L of water set at 25±1° C. Fifteen minutes after the beginning of the training session, the animal was removed from the water. The dosing solutions were administered 15 minutes after finishing of the training.
The swim test was performed for 5 minutes in the same manner as the training session. In the swim test, the behavior of each animal was horizontally recorded using a video camera. After the swim test, animals were immediately sacrificed by inhalation of carbon dioxide.
The swim movies were handled in a blind manner to ensure that the person who measured the immobility time had no information on the treatment. An animal was judged to be immobile whenever it remained floating in the water without moving its body or forepaws except for the slight movement to maintain its posture. The total time for which the animal remained immobile was defined as the immobility time. An observer blinded to the doses measured the immobility times. The immobility time of each animal was measured to one decimal place and rounded to a whole number. Immobility time was expressed in units of seconds. In each series the means of immobility time were calculated and rounded to a whole number using. The mean and standard error (SE) for each group were calculated using the data obtained from three experimental series and rounded to a whole number. All results are represented as the mean±SE.
The data of imipramine were analyzed using t-test with a two-sided significance level of 5% (p<0.05).

freely moving rats [2] = experiment: Sleep study of (R)-amisulpride (EEG/EMG sleep architecture); type: in vivo, rat
Description: Rapid eye movement (REM) sleep time, non-rapid eye movement (NREM) sleep time, WAKE time were measured using electroencephalogram (EEG) and electromyogram (EMG) recordings. […] EEG and EMG recordings were made for 6 hr starting at the beginning of the light phase. Vehicle (0.05 N HCl/0.5% Methyl Cellulose 400 solution) or dosing suspensions were orally administered 10 min before the beginning of light phase. The volume of administration was 5 mL/kg. The order of drug treatment varied pseudo-randomly and at least 1 week was allowed between the experiments for individual animals.
A radio transmitter (TL11M2-F40-EET; Data Science International, New Brighton, Minn., USA) was implanted subcutaneously in the back of anesthetized animals, and a pair of electrode wires was stereotaxically implanted into the skull in the following locations: one in the frontoparietal (2 mm anterior to the bregma and 2 mm left to the midline), and the other in parietal (5 mm posterior to the bregma and 2 mm right to the midline) areas. The EEG electrodes were fixed using dental cement. Electromyograms (EMG) were recorded from the dorsal neck muscle. The animals, then, were allowed at least 1 week recovery in individual plastic cages before EEG/EMG recording. EEG/EMG were recorded in the home cages in a soundproof box using Dataquest A.R.T. software (Data Science International, New Brighton, Minn., USA) at a sampling rate of 500 Hz.
Sleep stage analysis was conducted off-line using Sleepsign software (KISSEI COMTEC CO., LTD, Nagano, Japan). Electrographic activity of 10-sec epochs were analyzed and each epoch was automatically assigned as WAKE, REM, and NREM based on the waveforms of EEG and EMG according to the following definitions: WAKE was defined as a condition in which EMG exceeded the individual threshold, NREM was defined as a condition in which the power of delta waves (0.5-4 Hz) exceeded the individual threshold with no EMG activity, and REM was defined as a condition in which the power of theta waves (4-8 Hz) exceeded 40% of the total power of frequencies between 0.5 and 80 Hz in the presence of no EMG activity. The duration of each REM, WAKE, and NREM periods were calculated by summing time spent in each condition during sleep every 2 hours.
All data are expressed as means±S.E.M. REM sleep, NREM sleep time, and WAKE time each of sequential 2-hr periods were compared statistically using a repeated measures two-way ANOVA, followed by post-hoc Dunnett tests.

Structure (SMILES): CCN1CCC[C@@H]1CNC(=O)c1cc(S(=O)(=O)CC)c(N)cc1OC [(R)-amisulpride, R-4-Amino-N-[(1-ethyl-2-pyrrolidinyl)methyl]-5-(ethylsulfonyl)-2-methoxybenzamide]
- dose of R-amisulpride at which REM sleep suppression was saturated (freely moving rats [1]): ≥ 50 mg/kg
- immobility time (rat): 124 ± 12 s
- REM sleep duration (freely moving rats [2]; rat, 100 mg/kg p.o., 0-2 hr and 2-4 hr periods after administration): significant reductions
- NREM sleep time (freely moving rats [2]; rat, 10, 30, 100 mg/kg p.o.): no observed effect
- WAKE time (freely moving rats [2]; rat, 10, 30, 100 mg/kg p.o.): no observed effect
- REM sleep duration (freely moving rats [2]; rat, 10, 30, 100 mg/kg p.o., light phase): reduced REM sleep duration in dose-dependent manner
